In US20260132132A1, “3A,4,5,6-TETRAHYDRO-1 H-PYRAZOLO[3,4-C]PYRIDIN-7(7AH)-ONE DERIVATIVES AS FACTOR XIIA INHIBITORS” (KALVISTA PHARMACEUTICALS LIMITED, priority 2022, published 2026) one finds IC50 data, which are given here for 17 molecules.

For this assay, the target named is T1, Human Factor XIIa (hFXIIa) (Homo sapiens, UniProt P00748).
T1 construct: purchased Enzyme Research Laboratories
T1 sequence (P00748 373-615 limits assumed): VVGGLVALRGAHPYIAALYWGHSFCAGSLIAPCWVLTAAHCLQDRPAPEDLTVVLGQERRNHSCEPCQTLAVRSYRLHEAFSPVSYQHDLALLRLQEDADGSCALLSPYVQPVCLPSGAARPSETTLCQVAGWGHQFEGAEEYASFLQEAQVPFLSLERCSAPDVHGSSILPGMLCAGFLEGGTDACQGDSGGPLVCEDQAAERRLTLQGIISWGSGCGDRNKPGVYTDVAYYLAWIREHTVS
T1 sequence (P00748 20-372 partner limits assumed): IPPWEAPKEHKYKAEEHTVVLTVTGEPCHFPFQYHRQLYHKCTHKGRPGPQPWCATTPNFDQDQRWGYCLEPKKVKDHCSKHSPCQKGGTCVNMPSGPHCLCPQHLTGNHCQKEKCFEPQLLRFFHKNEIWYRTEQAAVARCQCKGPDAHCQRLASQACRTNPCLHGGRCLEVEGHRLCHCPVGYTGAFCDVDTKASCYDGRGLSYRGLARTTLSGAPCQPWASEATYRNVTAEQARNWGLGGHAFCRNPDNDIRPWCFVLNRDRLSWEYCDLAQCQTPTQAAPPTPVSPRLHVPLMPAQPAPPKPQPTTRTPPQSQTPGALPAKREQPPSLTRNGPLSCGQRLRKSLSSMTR
The assay can be described thus: Determination of Human Factor XIIa (hFXIIa) inhibition, fluorogenic substrate IC50 assay. Format: biochemical. The note with it: fluorogenic substrate H-DPro-Phe-Arg-AFC at Km, 25° C., read-out: Human FXIIa IC50. The method, then: Determination of Human Factor XIIa (hFXIIa) inhibition
The Km for the cleavage of the substrate by hFXIIa was determined by standard transformation of the Michaelis-Menten equation, with subsequent inhibition assays performed at substrate Km concentration.
Regarding `O=C(NCc1ccccc1)c1nn(-c2cccc(Cl)c2)c2c1CCN(c1ccc3c(c1)CN(CCO)CC3)C2=O` [Example 1107, N-benzyl-1-(3-chlorophenyl)-6-(2-(2-hydroxyethyl)-1,2,3,4-tetrahydroisoquinolin-7-yl)-7-oxo-4,5,6,7-tetrahydro-1H-pyrazolo[3,4-c]pyridine-3-carboxamide], the IC50 is 10 to 100 nM.
Under `O=C(N[C@@H]1CCOC1)c1nn(-c2cccc(Cl)c2)c2c1CCN(c1ccc3c(c1)CN(CCO)CC3)C2=O` [Example 1108, (R)-1-(3-chlorophenyl)-6-(2-(2-hydroxyethyl)-1,2,3,4-tetrahydroisoquinolin-7-yl)-7-oxo-N-(tetrahydrofuran-3-yl)-4,5,6,7-tetrahydro-1H-pyrazolo[3,4-c]pyridine-3-carboxamide] stands 100 to 300 nM; under `C[C@@H](CO)N1CCc2ccc(N3CCc4c(C(=O)NCC5CC5)nn(-c5cccc(Cl)c5)c4C3=O)cc2C1` [Example 1113, (S)-1-(3-chlorophenyl)-N-(cyclopropylmethyl)-6-(2-(1-hydroxypropan-2-yl)-1,2,3,4-tetrahydroisoquinolin-7-yl)-7-oxo-4,5,6,7-tetrahydro-1H-pyrazolo[3,4-c]pyridine-3-carboxamide], 300 to 1000 nM; under `O=C(NCC1CC1)c1nn(-c2cccc(Cl)c2)c2c1CCN(c1ccc3c(c1)CN(C1CCOC1)CC3)C2=O` (centres unmarked) [Example 1115, 1-(3-chlorophenyl)-N-(cyclopropylmethyl)-7-oxo-6-(2-(tetrahydrofuran-3-yl)-1,2,3,4-tetrahydroisoquinolin-7-yl)-4,5,6,7-tetrahydro-1H-pyrazolo[3,4-c]pyridine-3-carboxamide], 300 to 1000 nM.
Under `O=C(NCC1CC1)c1nn(-c2cccc(Cl)c2)c2c1CCN(c1ccc3c(c1)CN(CC1CCOC1)CC3)C2=O` (centres unmarked) [Example 1116, 1-(3-chlorophenyl)-N-(cyclopropylmethyl)-7-oxo-6-(2-((tetrahydrofuran-3-yl)methyl)-1,2,3,4-tetrahydroisoquinolin-7-yl)-4,5,6,7-tetrahydro-1H-pyrazolo[3,4-c]pyridine-3-carboxamide] stands 300 to 1000 nM.
Take `O=C(NCC1CC1)c1nn(-c2cccc(Cl)c2)c2c1CCN(c1ccc3c(c1)CN(C1CCCC1O)CC3)C2=O` (centres unmarked) [Example 1119, 1-(3-chlorophenyl)-N-(cyclopropylmethyl)-6-(2-(2-hydroxycyclopentyl)-1,2,3,4-tetrahydroisoquinolin-7-yl)-7-oxo-4,5,6,7-tetrahydro-1H-pyrazolo[3,4-c]pyridine-3-carboxamide]: the IC50 lay within 300 to 1000 nM.
As to `O=C1CC[C@H](CN2CCc3ccc(N4CCc5c(C(=O)NCC6CC6)nn(-c6cccc(Cl)c6)c5C4=O)cc3C2)N1` [Example 1120, (R)-1-(3-chlorophenyl)-N-(cyclopropylmethyl)-7-oxo-6-(2-((5-oxopyrrolidin-2-yl)methyl)-1,2,3,4-tetrahydroisoquinolin-7-yl)-4,5,6,7-tetrahydro-1H-pyrazolo[3,4-c]pyridine-3-carboxamide], the IC50 is 300 to 1000 nM.
Under `O=C1CC[C@@H](CN2CCc3ccc(N4CCc5c(C(=O)NCC6CC6)nn(-c6cccc(Cl)c6)c5C4=O)cc3C2)N1` [Example 1124, (S)-1-(3-chlorophenyl)-N-(cyclopropylmethyl)-7-oxo-6-(2-((5-oxopyrrolidin-2-yl)methyl)-1,2,3,4-tetrahydroisoquinolin-7-yl)-4,5,6,7-tetrahydro-1H-pyrazolo[3,4-c]pyridine-3-carboxamide] stands 300 to 1000 nM; under `C[C@H](NC(=O)c1nn(-c2cccc(Cl)c2)c2c1CCN(c1ccc3c(c1)CN(CCO)CC3)C2=O)c1cccnc1` [Example 1131, (S)-1-(3-chlorophenyl)-6-(2-(2-hydroxyethyl)-1,2,3,4-tetrahydroisoquinolin-7-yl)-7-oxo-N-(1-(pyridin-3-yl)ethyl)-4,5,6,7-tetrahydro-1H-pyrazolo[3,4-c]pyridine-3-carboxamide], 100 to 300 nM; under `Cn1cc(CNC(=O)c2nn(-c3cccc(Cl)c3)c3c2CCN(c2ccc4c(c2)CN(CCO)CC4)C3=O)cn1` [Example 1133, 1-(3-chlorophenyl)-6-(2-(2-hydroxyethyl)-1,2,3,4-tetrahydroisoquinolin-7-yl)-N-((1-methyl-1H-pyrazol-4-yl)methyl)-7-oxo-4,5,6,7-tetrahydro-1H-pyrazolo[3,4-c]pyridine-3-carboxamide], 100 to 300 nM.
With `Cc1cccnc1CNC(=O)c1nn(-c2cccc(Cl)c2)c2c1CCN(c1ccc3c(c1)CN(CCO)CC3)C2=O` [Example 1136, 1-(3-chlorophenyl)-6-(2-(2-hydroxyethyl)-1,2,3,4-tetrahydroisoquinolin-7-yl)-N-((3-methylpyridin-2-yl)methyl)-7-oxo-4,5,6,7-tetrahydro-1H-pyrazolo[3,4-c]pyridine-3-carboxamide], the IC50 is 10 to 100 nM.
Under `Cc1cnccc1CNC(=O)c1nn(-c2cccc(Cl)c2)c2c1CCN(c1ccc3c(c1)CN(CCO)CC3)C2=O` [Example 1163, 1-(3-chlorophenyl)-6-(2-(2-hydroxyethyl)-1,2,3,4-tetrahydroisoquinolin-7-yl)-N-((3-methylpyridin-4-yl)methyl)-7-oxo-4,5,6,7-tetrahydro-1H-pyrazolo[3,4-c]pyridine-3-carboxamide] stands 10 to 100 nM.
As for `CC1(C)OCCC1NC(=O)c1nn(-c2cccc(Cl)c2)c2c1CCN(c1cccc(CN3CCCCC3)c1)C2=O` (centres unmarked) [Example 1164, 1-(3-chlorophenyl)-N-(2,2-dimethyltetrahydrofuran-3-yl)-7-oxo-6-(3-(piperidin-1-ylmethyl)phenyl)-4,5,6,7-tetrahydro-1H-pyrazolo[3,4-c]pyridine-3-carboxamide], the IC50 lay within 300 to 1000 nM.
Under `Cc1cc(CNC(=O)c2nn(-c3cccc(Cl)c3)c3c2CCN(c2ccc4c(c2)CN(CCO)CC4)C3=O)nn1C` [Example 1166, 1-(3-chlorophenyl)-N-((1,5-dimethyl-1H-pyrazol-3-yl)methyl)-6-(2-(2-hydroxyethyl)-1,2,3,4-tetrahydroisoquinolin-7-yl)-7-oxo-4,5,6,7-tetrahydro-1H-pyrazolo[3,4-c]pyridine-3-carboxamide] stands 10 to 100 nM.
Under `O=C(NCc1cnoc1)c1nn(-c2cccc(Cl)c2)c2c1CCN(c1ccc3c(c1)CN(CCO)CC3)C2=O` [Example 1167, 1-(3-chlorophenyl)-6-(2-(2-hydroxyethyl)-1,2,3,4-tetrahydroisoquinolin-7-yl)-N-(isoxazol-4-ylmethyl)-7-oxo-4,5,6,7-tetrahydro-1H-pyrazolo[3,4-c]pyridine-3-carboxamide] stands 100 to 300 nM.
On to `Cc1cc(CNC(=O)c2nn(-c3cccc(Cl)c3)c3c2CCN(c2cccc(CN4CCCCC4)c2)C3=O)[nH]n1` [Example 1168, 1-(3-chlorophenyl)-N-((3-methyl-1H-pyrazol-5-yl)methyl)-7-oxo-6-(3-(piperidin-1-ylmethyl)phenyl)-4,5,6,7-tetrahydro-1H-pyrazolo[3,4-c]pyridine-3-carboxamide], for which the IC50 fell in the range of 10 to 100 nM.
Take `CCN1CCc2c(COC)cc(N3CCc4c(C(=O)NCC5CC5)nn(-c5cccc(Cl)c5)c4C3=O)cc2C1` [Example 1169, 1-(3-Chlorophenyl)-N-(cyclopropylmethyl)-6-(2-ethyl-5-(methoxymethyl)-1,2,3,4-tetrahydroisoquinolin-7-yl)-7-oxo-4,5,6,7-tetrahydro-1H-pyrazolo[3,4-c]pyridine-3-carboxamide]: the IC50 is 100 to 300 nM.
